The values that follow come from publication PMC5908784, “Extracellular loops 2 and 3 of the calcitonin receptor selectively modify agonist binding and efficacy” (Biochemical Pharmacology, 2018).

Assay in all cases: ERK1/2 phosphorylation
What all share (assay type): cell-based

Test [1] addresses T1, hCTR V375A (Homo sapiens, UniProt P30988, V375A).
T1 construct: c-Myc (N); expressed in transfected cells
T1 sequence (P30988 25-474 V375A): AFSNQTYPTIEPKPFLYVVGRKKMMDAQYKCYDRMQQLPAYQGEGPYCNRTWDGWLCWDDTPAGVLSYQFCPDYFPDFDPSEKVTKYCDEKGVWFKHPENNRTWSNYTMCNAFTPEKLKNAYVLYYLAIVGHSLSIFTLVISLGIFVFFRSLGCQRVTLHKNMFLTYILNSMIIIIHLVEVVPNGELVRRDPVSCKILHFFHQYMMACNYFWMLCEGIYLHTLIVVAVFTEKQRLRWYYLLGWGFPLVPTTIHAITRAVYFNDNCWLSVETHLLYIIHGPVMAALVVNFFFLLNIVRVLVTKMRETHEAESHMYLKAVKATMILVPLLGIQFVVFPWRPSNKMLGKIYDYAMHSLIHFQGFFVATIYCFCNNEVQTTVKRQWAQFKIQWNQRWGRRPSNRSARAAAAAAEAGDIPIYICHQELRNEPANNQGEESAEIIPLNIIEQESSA
The note with it: CV1-FlpIn cells, mean ± S.E.M.; for Emax: pERK maximal response; for EC50: pERK, three-parameter logistic fit. The method, boiled down:
(§1)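 Overnight-plated cells at 2.5 × 10^4/well are stimulated, and ERK1/2 phosphorylation is referenced to the 10% FBS response at 6 min before logistic curve fitting.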

The target in test [2] is T2, hCTR W361A (Homo sapiens, UniProt P30988, W361A).
T2 construct: expressed in transfected cells
T2 sequence (P30988 25-474 W361A): T1 sequence (P30988 25-474 V375A) with W337A, A351V
The note with it: for Emax: read-out: Emax (% WT); for EC50: pERK, three-parameter logistic fit. The method, boiled down:
as §1

The target of test [3] is T3, hCTR P363A (Homo sapiens, UniProt P30988, P363A).
T3 construct: expressed in transfected cells
T3 sequence (P30988 25-474 P363A): T1 sequence (P30988 25-474 V375A) with P339A, A351V
The note with it: CV1-FlpIn cells, mean ± S.E.M.; for Emax: pERK maximal response. The method, boiled down:
as §1

Test [4] has as its target T4, hCTR N288A (Homo sapiens, UniProt P30988, N288A).
T4 construct: expressed in transfected cells
T4 sequence (P30988 25-474 N288A): T1 sequence (P30988 25-474 V375A) with N264A, A351V
The settings on record: CV1-FlpIn cells, mean ± S.E.M.; for Emax: pERK maximal response; for EC50: pERK, three-parameter logistic fit. The method, boiled down: as §1

Test [5] concerns the target T5, hCTR V283A (Homo sapiens, UniProt P30988, V283A).
T5 construct: expressed in transfected cells
T5 sequence (P30988 25-474 V283A): T1 sequence (P30988 25-474 V375A) with V259A, A351V
The note with it: CV1-FlpIn cells, mean ± S.E.M.; for Emax: pERK maximal response; for EC50: pERK, three-parameter logistic fit. Summed up: as §1

Where [6] appears, read: pERK maximal response, hCTR W361A, CV1-FlpIn cells, mean ± S.E.M.
[7] abbreviates: hCTR W361A, CV1-FlpIn cells, mean ± S.E.M.

Substitutions are numbered along the chain they refer to. Read-outs that look alike come from different tables or passages of the source. Where a SMILES comes first, the peptide text is derived from it. Bridges are numbered along the chain shown (N, C = ends).

Take `CC[C@H](C)[C@H](NC(=O)[C@H](C)NC(=O)[C@@H](NC(=O)[C@H](CCC(N)=O)NC(=O)[C@@H]1CCCN1C(=O)[C@H](Cc1ccccc1)NC(=O)[C@@H](NC(=O)[C@H](Cc1c[nH]cn1)NC(=O)[C@H](Cc1ccccc1)NC(=O)[C@H](CCCCN)NC(=O)[C@H](CC(N)=O)NC(=O)[C@H](Cc1ccccc1)NC(=O)[C@H](CC(=O)O)NC(=O)[C@H](CCC(N)=O)NC(=O)[C@@H](NC(=O)[C@H](Cc1ccc(O)cc1)NC(=O)[C@@H](NC(=O)CNC(=O)[C@H](CC(C)C)NC(=O)[C@H](CCSC)NC(=O)[C@@H]1CSSC[C@H](N)C(=O)NCC(=O)N[C@@H](CC(N)=O)C(=O)N[C@@H](CC(C)C)C(=O)N[C@@H](CO)C(=O)N[C@@H]([C@@H](C)O)C(=O)N1)[C@@H](C)O)[C@@H](C)O)[C@@H](C)O)[C@@H](C)O)C(=O)NCC(=O)N[C@H](C(=O)NCC(=O)N[C@@H](C)C(=O)N1CCC[C@H]1C(N)=O)C(C)C` [hCT]: the maximum response (Emax) (in general, the size of the effect at its maximum, as opposed to the concentration needed) in test [1] was found to be 67 ± 3%; in test [2] it was 112 ± 6%; in test [3], 64 ± 6%; in test [4], 137 ± 8%; in test [5] it was 155 ± 14%.

As to `CC(C)C[C@H](NC(=O)CNC(=O)[C@H](C)NC(=O)[C@H](CC(C)C)NC(=O)[C@H](CCCNC(=N)N)NC(=O)[C@H](Cc1cnc[nH]1)NC(=O)[C@@H](NC(=O)[C@@H](NC(=O)[C@@H]1CSSC[C@H](NC(=O)[C@H](C)N)C(=O)N[C@@H](CC(=O)O)C(=O)N[C@@H]([C@@H](C)O)C(=O)N[C@@H](C)C(=O)N[C@@H]([C@@H](C)O)C(=O)N1)C(C)C)[C@@H](C)O)C(=O)N[C@@H](CC(C)C)C(=O)N[C@@H](CO)C(=O)N[C@@H](CCCNC(=N)N)C(=O)N[C@@H](CO)C(=O)NCC(=O)NCC(=O)N[C@H](C(=O)N[C@H](C(=O)N[C@@H](CCCCN)C(=O)N[C@@H](CC(N)=O)C(=O)N[C@@H](CC(N)=O)C(=O)N[C@@H](Cc1ccccc1)C(=O)N[C@H](C(=O)N1CCC[C@H]1C(=O)N[C@H](C(=O)N[C@@H](CC(N)=O)C(=O)N[C@H](C(=O)NCC(=O)N[C@@H](CO)C(=O)N[C@@H](CCCCN)C(=O)N[C@@H](C)C(=O)N[C@@H](Cc1ccccc1)C(N)=O)C(C)C)[C@@H](C)O)C(C)C)C(C)C)C(C)C` [hαCGRP], the Emax in test [1] is 58 ± 7%; in test [2] (setting [6]), 49 ± 8%; in test [4] it was 110 ± 10%; in test [5], 81 ± 7%. In addition, the EC50 (usually the concentration needed to bring the measured effect to its halfway point) in test [1] was 110 nM; in test [2] (setting [7]), 117 nM; in test [4] it was 97.7 nM; in test [5], 60.3 nM.

With `CSCC[C@H](NC(=O)CNC(=O)[C@H](CO)NC(=O)[C@H](Cc1ccccc1)NC(=O)[C@H](CCCNC(=N)N)NC(=O)[C@H](Cc1c[nH]cn1)NC(=O)[C@H](Cc1ccccc1)NC(=O)[C@H](CC(N)=O)NC(=O)[C@H](CC(N)=O)NC(=O)[C@H](CC(C)C)NC(=O)[C@H](CC(N)=O)NC(=O)[C@H](CCCNC(=N)N)NC(=O)[C@H](Cc1c[nH]c2ccccc12)NC(=O)[C@H](Cc1ccc(O)cc1)NC(=O)[C@H](C)NC(=O)[C@H](CO)NC(=O)[C@H](CC(C)C)NC(=O)[C@@H](NC(=O)[C@@H]1CSSC[C@H](N)C(=O)N[C@@H](CO)C(=O)N[C@@H](CC(N)=O)C(=O)N[C@@H](CC(C)C)C(=O)N[C@@H](CO)C(=O)N[C@@H]([C@@H](C)O)C(=O)N1)C(C)C)C(=O)NCC(=O)N[C@@H](Cc1ccccc1)C(=O)NCC(=O)N1CCC[C@H]1C(=O)N[C@@H](CCC(=O)O)C(=O)N[C@H](C(=O)N1CCC[C@H]1C(N)=O)[C@@H](C)O` [pCT] (H-CSNLSTCVLSAYWRNLNNFHRFSGMGFGPETP-NH2; disulfide 1-7), the Emax in test [1] amounted to 89 ± 4%; in test [2] (setting [6]), 76 ± 6%; in test [3] it was 39 ± 2%; in test [4], 135 ± 11%; in test [5], 109 ± 12%. Besides, the concentration for a half-maximal effect (EC50) in test [1] is 2.63 nM; in test [2] (setting [7]), 6.31 nM; in test [3] (pERK, three-parameter logistic fit), 5.75 nM; in test [4] it was 2.95 nM; in test [5] it was 2.24 nM.

`CC(C)C[C@H](NC(=O)[C@H](CC(N)=O)NC(=O)[C@H](CC(N)=O)NC(=O)[C@H](CO)NC(=O)[C@H](CO)NC(=O)[C@H](CCCNC(=N)N)NC(=O)[C@@H](NC(=O)[C@H](CC(C)C)NC(=O)[C@H](Cc1ccccc1)NC(=O)[C@H](CC(N)=O)NC(=O)[C@H](C)NC(=O)[C@H](CC(C)C)NC(=O)[C@H](CCCNC(=N)N)NC(=O)[C@H](CCC(N)=O)NC(=O)[C@@H](NC(=O)[C@H](C)NC(=O)[C@@H]1CSSC[C@H](NC(=O)[C@@H](N)CCCCN)C(=O)N[C@@H](CC(N)=O)C(=O)N[C@@H]([C@@H](C)O)C(=O)N[C@@H](C)C(=O)N[C@@H]([C@@H](C)O)C(=O)N1)[C@@H](C)O)C(C)C)C(=O)NCC(=O)N1CCC[C@H]1C(=O)N[C@H](C(=O)N[C@@H](CC(C)C)C(=O)N1CCC[C@H]1C(=O)N1CCC[C@H]1C(=O)N[C@H](C(=O)N[C@@H](CC(N)=O)C(=O)N[C@H](C(=O)NCC(=O)N[C@@H](CO)C(=O)N[C@@H](CC(N)=O)C(=O)N[C@H](C(=O)N[C@@H](Cc1ccc(O)cc1)C(N)=O)[C@@H](C)O)C(C)C)[C@@H](C)O)C(C)C` [rAmy]: the Emax was found to be 77 ± 13% in test [1]; 42 ± 9% in test [2]; 28 ± 9% in test [3]; 79 ± 7% in test [4]; 83 ± 9% in test [5].
